In US11878965B2, “Inhibitors of peptidylarginine deiminases” (Gilead Sciences, Inc., priority 2020, dated 2024):

Biological target: human PAD4 (Homo sapiens (Human), UniProt Q9UM07)
Test: In Vitro PAD4 BAEE Biochemical Assay
Settings: geometric mean of multiple experiments
Method in brief: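 Recombinant human PAD4 (His-SUMO tag removed, E. coli-expressed), 5 nM, preincubated with compound and 2 mM CaCl2 30 min at 25 °C in MOPS pH 7.6 with DTT; 3 mM BAEE added for 2 h at 25 °C, EDTA stop. Released ammonia detected by o-phthalaldehyde/DTT fluorescence (ex 405, em 535 nm).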

[1] = human PAD4, BAEE substrate, 5 nM PAD4, 2 mM calcium chloride, 3 mM BAEE
[2] = recombinant PAD4 5 nM, 2 mM calcium chloride, 3 mM BAEE substrate

human PAD4, sequence (Q9UM07 2-663): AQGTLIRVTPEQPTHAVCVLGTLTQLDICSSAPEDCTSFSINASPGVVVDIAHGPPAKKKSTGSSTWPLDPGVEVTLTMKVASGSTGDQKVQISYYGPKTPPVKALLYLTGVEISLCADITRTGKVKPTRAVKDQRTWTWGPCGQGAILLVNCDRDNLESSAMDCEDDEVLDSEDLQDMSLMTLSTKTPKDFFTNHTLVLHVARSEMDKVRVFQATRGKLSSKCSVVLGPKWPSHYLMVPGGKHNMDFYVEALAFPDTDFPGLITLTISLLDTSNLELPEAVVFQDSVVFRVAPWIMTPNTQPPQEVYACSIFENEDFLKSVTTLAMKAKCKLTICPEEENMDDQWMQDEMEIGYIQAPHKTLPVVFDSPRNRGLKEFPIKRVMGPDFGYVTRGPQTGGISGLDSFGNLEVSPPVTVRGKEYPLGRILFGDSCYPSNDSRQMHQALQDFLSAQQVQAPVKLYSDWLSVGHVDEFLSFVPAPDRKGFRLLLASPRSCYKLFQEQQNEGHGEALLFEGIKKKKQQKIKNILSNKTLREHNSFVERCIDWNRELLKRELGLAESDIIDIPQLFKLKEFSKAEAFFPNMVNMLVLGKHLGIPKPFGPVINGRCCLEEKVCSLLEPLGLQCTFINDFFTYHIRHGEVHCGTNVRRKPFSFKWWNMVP

IC50 [1] [nM] | IC50 [2] [nM] | Structure (SMILES)
165 |  | COc1cc(C(=O)N2C[C@H](N)CCN2C)cc2nc(-c3cc4ccc([C@@H](C)NC(=O)c5ccc(F)cc5)nc4n3CC3CC3)n(C)c12 [Example 155, N-((R)-1-(2-(5-((R)-5-amino-2-methylhexahydropyridazine-1-carbonyl)-7-methoxy-1-methyl-1H-benzo[d]imidazol-2-yl)-1-(cyclopropylmethyl)-1H-pyrrolo[2,3-b]pyridin-6-yl)ethyl)-4-fluorobenzamide]
234 |  | CCN(C(=O)OC)c1ccc2cc(-c3nc4cc(C(=O)N5CCC[C@@H](N)C5)cc(OC)c4n3C)n(CC3CC3)c2n1 [Example 111, (R)-methyl (2-(5-(3-aminopiperidine-1-carbonyl)-7-methoxy-1-methyl-1H-benzo[b]imidazol-2-yl)-1-(cyclopropylmethyl)-1H-pyrrolo [2,3-b]pyridin-6-yl) (ethyl)carbamate]
127 |  | COc1cc(C(=O)N2C[C@H](N)[C@@H]3CC[C@H]2C3)cc2nc(-c3cc4ccc([C@@H](C)NC(=O)C56CC(C(F)(F)F)(C5)C6)nc4n3CC3CC3)n(C)c12 [Example 230, N-((R)-1-(2-(5-((1S,4R,5R)-4-amino-2-azabicyclo[3.2.1]octane-2-carbonyl)-7-methoxy-1-methyl-1H-benzo[d]imidazol-2-yl)-1-(cyclopropylmethyl)-1H-pyrrolo[2,3-b]pyridin-6-yl)ethyl)-3-(trifluoromethyl)bicyclo[1.1.1] pentane-1-carboxamide]
18.2 |  | COc1cc(C(=O)N2[C@H]3CC[C@@H]2[C@H](N)C3)cc2nc(-c3cc4ccc([C@@H](C)NC(=O)C56CC(C#N)(C5)C6)cc4n3CC3CC3)n(C)c12 [Example 134, N-((R)-1-(2-(5-((1R,2R,4S)-2-amino-7-azabicyclo[2.2.1]heptane-7-carbonyl)-7-methoxy-1-methyl-1H-benzo[d]imidazol-2-yl)-1-(cyclopropylmethyl)-1H-indol-6-yl)ethyl)-3-cyanobicyclo[1.1.1]pentane-1-carboxamide]
64.2 |  | COc1cc(C(=O)N2C[C@H](N)CCN2C)cc2nc(-c3cc4ccc([C@@H](C)NC(=O)C5(C)CC5)nc4n3CC3CC3)n(C)c12 [Example 200, N-((R)-1-(2-(5-((R)-5-amino-2-methylhexahydropyridazine-1-carbonyl)-7-methoxy-1-methyl-1H-benzo[d]imidazol-2-yl)-1-(cyclopropylmethyl)-1H-pyrrolo[2,3-b]pyridin-6-yl)ethyl)-1-methylcyclopropane-1-carboxamide]
 | 570 | COc1cc(C(=O)N2C[C@H](N)[C@@H]3CC[C@H]2C3)cc2nc(-c3cc4ccc([C@@H](C)NC(=O)c5ccnc(C(F)(F)F)n5)nc4n3CC3CC3)n(C)c12 [Example 316, N-((R)-1-(2-(5-((1S,4R,5R)-4-amino-2-azabicyclo[3.2.1]octane-2-carbonyl)-7-methoxy-1-methyl-1H-benzo[d]imidazol-2-yl)-1-(cyclopropylmethyl)-1H-pyrrolo[2,3-b]pyridin-6-yl)ethyl)-2-(trifluoromethyl)pyrimidine-4-carboxamide]
4050 |  | COc1cc(C(=O)N2C[C@H](N)CCN2C)cc2nc(-c3cc4ccc([C@@H](C)NC(=O)C5(c6ccc(C(F)(F)F)cc6)CC5)nc4n3CC3CC3)n(C)c12 [Example 163, N-((R)-1-(2-(5-((R)-5-amino-2-methylhexahydropyridazine-1-carbonyl)-7-methoxy-1-methyl-1H-benzo[d]imidazol-2-yl)-1-(cyclopropylmethyl)-1H-pyrrolo[2,3-b]pyridin-6-yl)ethyl)-1-(4-(trifluoromethyl)phenyl)cyclopropane-1-carboxamide]
584 |  | COc1cc(C(=O)N2C[C@H](N)CC[C@@H]2C)cc2nc(-c3cc4ccc(-c5cccc6c5CNC6=O)nc4n3CC3CC3)n(C)c12 [Example 262, 4-(2-(5-((2S,5R)-5-amino-2-methylpiperidine-1-carbonyl)-7-methoxy-1-methyl-1H-benzo[d]imidazol-2-yl)-1-(cyclopropylmethyl)-1H-pyrrolo[2,3-b]pyridin-6-yl)isoindolin-1-one]
196 |  | CCN(C(=O)OC)c1ccc2cc(-c3nc4cc(C(=O)N5CCC[C@@H](N)C5)ccc4n3C3CC3)n(CC3CC3)c2n1 [Example 113, (R)-methyl (2-(5-(3-aminopiperidine-1-carbonyl)-1-cyclopropyl-1H-benzo[d]imidazol-2-yl)-1-(cyclopropylmethyl)-1H-pyrrolo[2,3-b]pyridin-6-yl)(ethyl)carbamate]
50000 |  | COc1cc(C(=O)N[C@H]2CCNC2)cc2nc(-c3cc4ccc(N(C(F)F)S(C)(=O)=O)nc4n3CC3CC3)n(C)c12 [Example 88, (S)-2-(1-(cyclopropylmethyl)-6-((N-(difluoromethyl)methyl)sulfonamido)-1H-pyrrolo[2,3-b]pyridin-2-yl)-7-methoxy-1-methyl-N-(pyrrolidin-3-yl)-1H-benzo[d]imidazole-5-carboxamide]
 | 103 | COc1cc(C(=O)N2C[C@H](N)[C@@H]3CC[C@H]2C3)cc2nc(-c3cc4ccc([C@@H](C)NC(=O)C5(F)CC5)nc4n3CC3CC3)n(C)c12 [Example 326, N-((R)-1-(2-(5-((1S,4R,5R)-4-amino-2-azabicyclo[3.2.1]octane-2-carbonyl)-7-methoxy-1-methyl-1H-benzo[d]imidazol-2-yl)-1-(cyclopropylmethyl)-1H-pyrrolo[2,3-b]pyridin-6-yl)ethyl)-1-fluorocyclopropane-1-carboxamide]
231 |  | COc1cc(C(=O)N2C[C@H](N)CCN2C)cc2nc(-c3cc4ccc([C@@H](C)NC(=O)c5nc(C)ccc5C)nc4n3CC3CC3)n(C)c12 [Example 176, N-((R)-1-(2-(5-((R)-5-amino-2-methylhexahydropyridazine-1-carbonyl)-7-methoxy-1-methyl-1H-benzo[d]imidazol-2-yl)-1-(cyclopropylmethyl)-1H-pyrrolo[2,3-b]pyridin-6-yl)ethyl)-3,6-dimethylpicolinamide]
166 |  | COc1cc(C(=O)N2C[C@H](N)CCN2C)cc2nc(-c3cc4ccc([C@@H](C)NC(=O)c5cc(F)cc(F)c5)nc4n3CC3CC3)n(C)c12 [Example 156, N-((R)-1-(2-(5-((R)-5-amino-2-methylhexahydropyridazine-1-carbonyl)-7-methoxy-1-methyl-1H-benzo[d]imidazol-2-yl)-1-(cyclopropylmethyl)-1H-pyrrolo[2,3-b]pyridin-6-yl)ethyl)-3,5-difluorobenzamide]
329 |  | CCN(c1ccc2cc(-c3nc4cc(C(=O)N5CCC[C@@H](N)[C@H]5C)cc(OC)c4n3CC3(C)CC3)n(CC3CC3)c2n1)S(C)(=O)=O [Example 40, N-(2-(5-((2R,3R)-3-amino-2-methylpiperidine-1-carbonyl)-7-methoxy-1-((1-methylcyclopropyl)methyl)-1H-benzo[d]imidazol-2-yl)-1-(cyclopropylmethyl)-1H-pyrrolo [2,3-b]pyridin-6-yl)-N-ethylmethanesulfonamide]
50000 |  | COc1cc(C(=O)N2CCCC3(CCN3)C2)cc2nc(-c3cc4ccc(N(C(F)F)S(C)(=O)=O)nc4n3CC3CC3)n(C)c12 (centres unmarked) [Example 75, N-(1-(cyclopropylmethyl)-2-(7-methoxy-1-methyl-5-(1,6-diazaspiro[3.5]nonane-6-carbonyl)-1H-benzo[d]imidazol-2-yl)-1H-pyrrolo[2,3-b]pyridin-6-yl)-N-(difluoromethyl) methanesulfonamide]
124 |  | COc1cc(C(=O)N2CCC[C@@H](N)[C@H]2C)cc2nc(-c3cc4ccc(N(C)S(C)(=O)=O)nc4n3CC3CC3)n(CC3CC3)c12 [Example 24, N-(2-(5-((2R,3R)-3-amino-2-methylpiperidine-1-carbonyl)-1-(cyclopropylmethyl)-7-methoxy-1H-benzo[d]imidazol-2-yl)-1-(cyclopropylmethyl)-1H-pyrrolo [2,3-b]pyridin-6-yl)-N-methylmethanesulfonamide]
346 |  | COc1cc(C(=O)N2C[C@H](N)CC[C@@H]2C)cc2nc(-c3cc4ccc(-c5cccnc5-c5cncnc5)nc4n3CC3CC3)n(C)c12 [Example 266, ((2S,5R)-5-amino-2-methylpiperidin-1-yl)(2-(1-(cyclopropylmethyl)-6-(2-(pyrimidin-5-yl)pyridin-3-yl)-1H-pyrrolo[2,3-b]pyridin-2-yl)-7-methoxy-1-methyl-1H-benzo[d]imidazol-5-yl)methanone]
 | 88.4 | COc1cc(C(=O)N2C[C@H](N)[C@@H]3CC[C@H]2C3)cc2nc(-c3cc4ccc([C@@H](C)NC(=O)C5(F)CCC5)nc4n3CC3CC3)n(C)c12 [Example 327, N-((R)-1-(2-(5-((1S,4R,5R)-4-amino-2-azabicyclo[3.2.1]octane-2-carbonyl)-7-methoxy-1-methyl-1H-benzo[d]imidazol-2-yl)-1-(cyclopropylmethyl)-1H-pyrrolo[2,3-b]pyridin-6-yl)ethyl)-1-fluorocyclobutane-1-carboxamide]

Structure (SMILES) | IC50 [1] [nM] | IC50 [2] [nM]
COc1cc(C(=O)N2[C@H]3CC[C@@H]2[C@H](N)C3)cc2nc(-c3cc4ccc([C@@H](C)NC(=O)N5CC(O)C5)nc4n3CC3CC3)n(C)c12 [Example 236, N-((R)-1-(2-(5-((1R,2R,4S)-2-amino-7-azabicyclo[2.2.1]heptane-7-carbonyl)-7-methoxy-1-methyl-1H-benzo[d]imidazol-2-yl)-1-(cyclopropylmethyl)-1H-pyrrolo[2,3-b]pyridin-6-yl)ethyl)-3-hydroxyazetidine-1-carboxamide] | 51.3 | 
COc1cc(C(=O)N2[C@H]3CC[C@@H]2[C@H](N)C3)cc2nc(-c3cc4ccc([C@@H](C)NC(=O)c5ccccc5)nc4n3CC3CC3)n(C)c12 [Example 123, N-((R)-1-(2-(5-((1R,2R,4S)-2-amino-7-azabicyclo[2.2.1]heptane-7-carbonyl)-7-methoxy-1-methyl-1H-benzo[d]imidazol-2-yl)-1-(cyclopropylmethyl)-1H-pyrrolo[2,3-b]pyridin-6-yl)ethyl)benzamide] | 29.2 | 
